Experimental data: a melting point compilation (Tetko et al.; mined from patent text by program, amines drawn as free bases though some values may be those of a salt)

Point of comparison: `CCCCN(C(=O)NC)c1ccc(Cl)c(Cl)c1`, melting point 58 °C. Against it:
- CCN1C(=O)C(C)(C)C(=O)N(C)c2cc(CN(CCn3ccc4oc(C)c(C)c4c3=O)Cc3cc(C)nn3C)ccc21 — higher, 148 to 150 °C
- Nc1c(Cl)cnc(OCCO)c1Cl — higher, 77.5 to 81 °C
- N#CC(C(=O)Nc1ccccc1)C(=O)c1nn(-c2ccccc2)c2c1CSc1ccc(C(=O)NCC(=O)O)cc1-2 (stereo not given) — higher, 244 to 250 °C
- CCCCCCCC(CC(=O)OO)CC(=O)OO — lower, 19 to 22 °C
- O=C(N[C@@H](Cc1ccccc1)[C@@H](O)[C@H](O)[C@H](Cc1ccccc1)NC(=O)c1ccccn1)c1ccccn1 — higher, 179 to 184 °C
- Cc1ccc(S(=O)(=O)OCCOc2ccc(N)c(CS(=O)(=O)c3ccccc3)c2)cc1 — higher, 144 to 146 °C
- COc1cc2c(cc1Nc1ncc(Cl)c(Nc3ccccc3S(C)(=O)=O)n1)CCN(CC(N)=O)CC2 — higher, 111 to 123 °C
- O=C(CCl)N1CC(c2ccc(F)cc2)Sc2ccccc21 (stereo not given) — higher, 122 to 124 °C
- Cc1nnc2ccc(-c3ccccc3Cl)nn12 — higher, 146 to 148 °C
- CC(C)C(C)(C#N)N1C(=O)c2cccc(Cl)c2C1=O (stereo not given) — higher, 71 to 72 °C
- CN1C(=O)Cc2cnc(N3CCN(C(c4ccccc4)c4ccccc4)CC3)nc21 — higher, 75 to 80 °C
- CCCCNC(=O)[C@@H]1C[C@]2(NC(=O)N(CCCN3CCC(O)CC3)C2=O)c2cc(F)ccc2O1 — higher, 86 to 88 °C
- Cn1c(C=O)cc2cccc(F)c21 — higher, 61 to 63 °C
- C1=Cn2cnnc2Cc2ccsc21 — higher, 146 °C
- O=C1C(c2cccc(C(F)(F)F)c2Cl)=NN(CCCCC(F)(F)F)C2C=C(Cl)C=CC12 (stereo not given) — higher, 137 to 138 °C
- CSc1cc2c(cc1C(F)(F)F)N(C(=O)Nc1ccc(C(=O)NCCN(C)C)cc1)CC2 — higher, 154 to 155 °C
- Cc1coc(Cc2ccc(N)cc2)n1 — higher, 84 to 85 °C
- Cc1cccc(Nc2cc(Nc3ccc(OCC(O)CN(C)C)cc3)ncn2)c1 (stereo not given) — higher, 192 to 195 °C
- Cc1cc(-c2cnn3c(C(F)(F)F)cc(-c4ccc(Cl)c(Cl)c4)nc23)ccn1 — higher, 275 °C
- COC(=O)c1ccc(CCC2CNc3nc(NC(=O)C(C)(C)C)nc(O)c3C2)[nH]1 (stereo not given) — higher, 246 to 248 °C
- O=C(O)c1cccc(NC(=O)C(CS)Cc2ccc(F)cc2)c1 (stereo not given) — higher, 180 to 182 °C
- O=C(O)C(=O)c1ccc(OCC(=O)N2CCC(c3ccccc3)CC2)cc1 — higher, 209 to 210 °C
- CCCCCCCNC(=O)N(C)c1cccc(-c2ccc(CCC(=O)O)cn2)c1 — higher, 118 °C
- COc1ccccc1C(=O)C=Cc1ccncc1 — higher, 70 °C
- Nc1ccccc1C(=O)N1Cc2ccccc2C(=O)N1 — higher, 156 to 157 °C
- COc1cc(Nc2c(C#N)cnc3cc(C)sc23)c(Cl)cc1Cl — higher, 213 to 214 °C
- NNC(=O)c1nn(Cc2ccc(Cl)cc2Cl)c2ccccc12 — higher, 161 to 162 °C
- N#Cc1c(N)n[nH]c1-c1ccc(Oc2ccccc2)cc1 — higher, 187 to 188 °C
- CN1CCN(c2cc(Sc3ccccc3)nc(-c3ccccc3)n2)CC1 — higher, 125 to 128 °C
- CCN(C)CCOc1ccc(/C=C/C(=O)O)cc1 — higher, 206 °C
- OC1CCN(c2ccccc2)C12CCN(C1CC3CCCCCC3C1)CC2 (stereo not given) — higher, 219 °C
- CCOC(=O)C(C)(CCCN(C)CCc1ccc(OC)c(OC)c1)c1ccc(OC)c(OC)c1 (stereo not given) — higher, 118 to 121 °C
- Nc1c(CCO)cc(Cl)cc1C(O)c1ccccc1 (stereo not given) — higher, 130 to 132 °C
- O=c1c2ccccc2oc2cc(OCCO)c(Cl)cc12 — higher, 153 to 156 °C
- Cc1c(C)n2c3c(cccc13)CCc1ccccc1-2 — higher, 76 to 77 °C
- Cc1onc(-c2ccccc2Cl)c1CCC(=O)O — higher, 79 to 81 °C
- CCCCCCC1=C(Br)C(CBr)(NCc2ccccc2)OC1=O (stereo not given) — higher, 72 to 75 °C
- CS(=O)(=O)c1ccc(-c2[nH]nc(C(CCCO[N+](=O)[O-])=NO)c2-c2ccc(C#N)cc2)cc1 — higher, 146 to 147 °C
- CCC(=O)Nc1nnc2c3c(c(N4CCOCC4)nn12)CCCC3 — higher, 164 to 166 °C
- CC(=NNc1c(Cl)cc(C(F)(F)F)cc1Cl)C(=NO)C(=O)Nc1ccccc1 — higher, 185 to 186 °C
- CCSc1ccc(OC(C)c2ccnc3ncnn23)cc1 (stereo not given) — higher, 65 to 67 °C
- COc1ccc(CCSc2c(O)cc(-c3ccccc3)oc2=O)cc1 — higher, 144 to 145 °C
- COc1ccc(CN2Cc3cncn3C(c3ccc(-c4ccsc4)cc3)C2=O)cc1 (stereo not given) — higher, 162 to 164 °C
- CC(C)(C)NS(=O)(=O)c1cnc(Cl)s1 — higher, 75 °C
- COc1ccnc2c1C(=O)CC(c1ccccc1Cl)C2 (stereo not given) — higher, 116 to 117 °C
- O=CC12CC(c3ccccc31)c1ccc(Cl)cc12 (stereo not given) — higher, 91 to 92 °C
- CCOC(=O)C(=O)Nc1ccc(C#N)c(C#N)c1 — higher, 194 °C
- CC(=O)c1ccc(S(=O)(=O)NCC(F)(F)F)cc1 — higher, 180 to 181 °C
- Cc1nc2c3c(ccc2n1C)[C@@H](O)[C@H](O)[C@@H](c1ccccc1)N3 — higher, 225 °C
- COc1ccc(OC(F)(F)F)cc1[C@H]1CO[C@]2(CCCN[C@H]2c2ccccc2)C1 — higher, 91 to 104 °C
- O=C(O)C1=NN(c2ccc(Cl)cc2)C(c2ccccc2)C1 (stereo not given) — higher, 177 to 179 °C
- O=c1[nH]nc(-c2ccccc2Nc2cccc(C(F)(F)F)c2)s1 — higher, 157 to 160 °C
- COc1cn(-c2ccc(-c3cnn(C)c3)cc2F)nc(-c2ccnn2-c2ccccc2)c1=O — higher, 195 to 197 °C
- Nc1cccc(-c2ccc(CCN3CCN(C(=O)C4CCCC4)CC3)cc2)n1 — higher, 185 to 187 °C
- c1ccc(CSc2nc3nc(-c4ccccc4)cc(-c4ccccc4)n3n2)cc1 — higher, 122 to 124 °C
- CC(C)C[C@H](NC(=O)OC(c1ccccc1)c1ccccc1)C(=O)Oc1c(Cl)c(Cl)c(Cl)c(Cl)c1Cl — higher, 84 to 86 °C
- CC1Cc2cc(C3C(=O)Oc4c3cc(C(C)(C)C)cc4C(C)(C)C)ccc2O1 (stereo not given) — higher, 136 to 152 °C
- Cc1cccc(C2(c3cccc(C)c3)CCC(=O)[C@H]3CN(C(=O)Cc4ccccc4)C[C@H]32)c1 (racemic) — higher, 207 °C
- Nc1cccc(CN2CCN(C(c3ccccc3)c3ccccc3)CC2)c1 — higher, 104 to 106 °C
- O=C(NCCc1ccccc1)c1ccccc1-c1ccccc1CNS(=O)(=O)c1cccc([N+](=O)[O-])c1 — higher, 145 °C
- Nc1cccc([C@H]2C[C@H]2NC(=O)Nc2ccc(Cl)cn2)c1 (racemic) — higher, 178 °C
- CC(C)S(=O)(=O)O[C@H]1C[C@@H](C(=O)O)N(C(=O)c2ccccc2Br)C1 — higher, 139 to 140 °C
- CCOC(=O)C(=C1SC=C(O)S1)S(C)(=O)=O — higher, 145 to 147 °C
- CCNC(=O)[C@H](C)C[C@H](O)[C@H](CC1CCCCC1)NC(=O)[C@H](Cc1cscn1)NC(=O)OC(C)(C)C — higher, 179 to 181 °C
- CCCCc1nc(SC)c(C(=O)OCC)n1Cc1ccc(-c2ccc(S(=O)(=O)NC#N)cc2)cc1 — higher, 244 °C
- O=Cc1ccc(NS(=O)(=O)c2ccccc2)cc1O — higher, 150 to 157 °C
- Cc1ncc(-c2nc3cc4c(cc3[nH]2)NC(=O)C4(C)C)cn1 — higher, > 350 °C
- CN(CCC(=O)O)S(=O)(=O)c1c(Cl)cccc1Cl — higher, 115 °C
- CC(=O)c1ccc(C)c(N=C2NCCN2)c1 — higher, 160 to 162 °C
- Clc1ccc(-c2csc(-c3cnccc3N3CCOCC3)n2)cc1 — higher, 169 °C
- BrC/C(=C(\CBr)c1ccccc1)c1ccccc1 — higher, 98 °C
- CC(C)(Cc1cc2nc(Cl)ccc2n1S(=O)(=O)c1ccccc1)C(=O)O — higher, 208 to 211 °C
- CC1(C)SC(CCCc2ccc(C(=O)O)cc2)N(CCC2(O)CCCCC2)C1=O (stereo not given) — higher, 132 to 137 °C
- COC(=O)C1=NNC(C)=C(C(=O)OC(C)C)C1c1cccc([N+](=O)[O-])c1 (stereo not given) — higher, 193 °C
- OCCCc1ccccc1N(Cc1ccccc1)Cc1ccccc1 — higher, 71.5 to 73 °C
- C#CCOc1cc(C(=O)O)cc(S(N)(=O)=O)c1-c1ccccc1 — higher, 154 to 155 °C
- CC1CCC(C(C)C)C(C(C#Cc2ccc(Cc3ccc(F)cc3)o2)N(O)C(N)=O)C1 (stereo not given) — higher, 154 to 156 °C
- CCOC(=O)c1c(-c2ccc(F)cc2)c(-c2ccc(F)cc2)cn1C(C)C — lower, 49 °C
- CCOC(=O)COc1cccc(NC(=O)NC2N=C(c3ccccc3F)c3ccccc3N(CC(=O)N3CC4CCC(CC4)C3)C2=O)c1 (racemic) — higher, 156 to 158 °C
- CCCCCc1c(/C=C/C(=O)O)sc2cc(OC)ccc12 — higher, 209 to 210 °C
- O=CC1C(=O)CCC(c2ccccc2)(c2ccccc2)C1C[N+](=O)[O-] (stereo not given) — higher, 188 °C
- Cc1nc2c3c(ccn2c1C)C(O)CC(c1ccccc1)N3 (stereo not given) — higher, 210 to 212 °C
- c1ccc(CSc2nnn[nH]2)cc1 — higher, 98 to 100 °C
- Cc1[nH]nc(Nc2ccccc2)c1C(=O)OC(C)C — higher, 138 to 139 °C
- COC(=O)c1ccc(-c2nc(-c3ccc(Cl)cc3)no2)c(N)c1 — higher, 227 to 228 °C
- CCn1cc(-c2ccccc2)c(=O)c(-c2cccc(C(F)(F)F)c2)c1 — higher, 98 to 100 °C
- Cc1ccc(NC(=O)c2ccc(CN3C(=O)C4(COc5cc6c(cc54)CCO6)c4ccccc43)cc2)c(C)c1 (stereo not given) — higher, 249 to 251 °C
- CC(Cc1c[nH]c2ccccc12)NC(=O)NCC1CCC(c2ccccc2)(N(C)C)CC1 (stereo not given) — higher, 140 to 146 °C
- O=C(O)C1Cc2ccc(Cl)cc2NC1=O (stereo not given) — higher, 158 to 160 °C
- O=C(NCc1ccc(Cl)cc1)c1cn2c3c(cc(CN4CCOCC4)cc3c1=O)OC(CNCc1ccncc1)C2 (stereo not given) — higher, 164 to 167 °C
- O=C1CC(=Cc2ccccc2)C(=O)O1 — higher, 167 to 170 °C
- COc1ccc2c(c1C)CCCC2=O — higher, 103 to 105 °C
- C[C@@H]1CC=C(S(=O)(=O)c2ccccc2)[C@H](O)C1 — higher, 79 to 81 °C
- Cc1nn(C)c(C#N)c1[N+](=O)[O-] — higher, 96 to 98 °C
- O=C(O)c1ccc(-c2ccnnc2)cc1 — higher, > 330 °C
- FC(F)(F)c1cc(C(F)(F)F)n2nc(SCc3ccccc3)nc2n1 — higher, 78.5 to 80.5 °C
- CCN(CC)CCNC(=O)c1cccc2c(=O)c(C)c(-c3cccc(C)c3)oc12 — higher, 79.5 to 86 °C
- CCCCCCCCc1ccc(OC(=O)c2ccc([C@H]3CC[C@H](CCC)C3)cc2)cc1 (relative stereo) — lower, 36 °C
- COc1cc(Cc2nc(NC(C)C)c3c(C)c(C#N)sc3n2)cc(OC)c1OC — higher, 143 to 147 °C
